Data: patent publication US20240000071A1, “DEVICES, COMPOUNDS AND METHODS FOR INSECT CONTROL” (Agriculture Victoria Services Pty Ltd, priority 2020, published 2024)
Like-named read-outs stand apart in the source and are kept apart here.

Assays:
[1] = tested on: Queensland fruit flies antennae and palps; test: Electroantennogram (EAG) and Electropalpogram (EPG) screening; parameters: species or system Bactrocera tryoni
Source text: FIG. 2. Electrophysiological responses of Queensland fruit flies antennae (A) and palps (B) to fungal (FV) components. Graphs located on the upper part of each figure represent the electric potential of the antenna/palp. Arrows indicate points in time at which chemical stimulations are applied. Olfactory “responses” are characterised by sudden drops (spike) of the electric potential in the antenna; the amplitude of which is positively correlated to response strength. Stars indicate statistical significance of response amplitudes elicited by test compounds compared to that of the solvent (blank=paraffin oil). Bars represent the normalized responses relative to a positive control (ethyl hexanoate) of male (grey) and female (white) flies. Letters above bars indicate significant differences in response strength between each sex.
Graphs located on the upper part represent the electric potential of the antenna/palp. Arrows indicate points in time at which chemical stimulations are applied. Olfactory “responses” are characterised by sudden drops (spike) of the electric potential in the antenna; the amplitude of which is positively correlated to response strength. Stars indicate statistical significance of response amplitudes elicited by test compounds compared to that of the solvent (blank=paraffin oil). Bars represent the normalized responses relative to a positive control (ethyl hexanoate) of male (grey) and female (white) flies. Letters above bars indicate significant differences in response strength between male and female Qfly.

[2] = Release rate from LDPE sachets by gravimetry; format: physicochemical; settings: for Release rate per thickness of LDPE pouch: 22° C., constant, laboratory; for Estimated longevity: standard size sachet (50 cm^2), 1 ml of neat compound
Source text: Sachets consist of plastic pouches made of Low Density PolyEthylene (LDPE) layflat tubing of determined size and thickness. Each sachet contained one or several dental wicks (approximately 4 cm length and 1 cm diameter) on which a given amount of the neat chemical compound was applied (between 0.1 and 5 g). The impregnated wick (20) was subsequently enclosed in the LDPE pouch (10) and sealed using a heat sealer (FIG. 3).
Release rates of the short chain esters and fungal alcohols were investigated in a range of sachet designs.

female B. tryoni = test: GC-FID-EAD with odours of infested yellow nectarines; parameters: species or system Bactrocera tryoni; settings: female B. tryoni antenna
Protocol: Gas-chromatography linked to electrophysiology (GC-FID-EAD) was conducted using female B. tryoni and odours of infested yellow nectarines (collected by SPME), to identify volatiles of interest as candidate female attractants.

[3] = tested on: Mediterranean fruit fly, Ceratitis capitata; settings: cited from earlier work

Structure (SMILES)	Release rate per thickness of LDPE pouch ([2]; 50 μm LDPE pouch)	Release rate per thickness of LDPE pouch ([2]; 100 μm LDPE pouch)	Release rate per thickness of LDPE pouch ([2]; 150 μm LDPE pouch)	Estimated longevity [2]	Release rate per thickness of LDPE pouch ([2]; 200 μm LDPE pouch)	electrophysiological responses (EAG/EPG) ([1]; listed as 2-methyl-1-butanol)	electrophysiological responses (EAG/EPG) ([1]; listed as 2-methylbutanol)	electrophysiological responses (EAG/EPG) [1]	electrophysiological responses (EAG/EPG) ([1]; listed as iso-butyl alcohol)	electrophysiological (EAD) response (female B. tryoni)	electrophysiological response in EAG [3]
CCC(C)CO (stereo not shown) [2-Methyl-butanol, 2-methyl-1-butanol]	16.4 mg/day	4.1 mg/day	2.1 mg/day	>1 year		strong electrophysiological responses	strong responses				
CCCC(=O)OCC [Ethyl butyrate]	700 mg/day	295 mg/day	171 mg/day	~6 days	127 mg/day						
CCCCCCC1CCC(=O)O1 (stereo not shown) [γ-decalactone]										significant response	evoke an electrophysiological response

The next lines start with results.

Release rate per thickness of LDPE pouch ([2]; 50 μm LDPE pouch)	Release rate per thickness of LDPE pouch ([2]; 100 μm LDPE pouch)	Release rate per thickness of LDPE pouch ([2]; 150 μm LDPE pouch)	Estimated longevity [2]	Release rate per thickness of LDPE pouch ([2]; 200 μm LDPE pouch)	Structure (SMILES)	electrophysiological responses (EAG/EPG) ([1]; listed as 2-methyl-1-butanol)	electrophysiological responses (EAG/EPG) ([1]; listed as 2-methylbutanol)	electrophysiological responses (EAG/EPG) [1]	electrophysiological responses (EAG/EPG) ([1]; listed as iso-butyl alcohol)	electrophysiological (EAD) response (female B. tryoni)	electrophysiological response in EAG [3]
880 mg/day	302.7 mg/day	180.6 mg/day	~6 days	134 mg/day	CCOC(C)=O [Ethyl acetate]						
880 mg/day	321 mg/day	200 mg/day	~5 days	171 mg/day	CCOC(=O)CC [Ethyl propionate]						
12 mg/day	3 mg/day	2 mg/day	>1 year		CC(C)CCO [Isoamyl alcohol]			strong electrophysiological responses			
20 mg/day	4 mg/day	2 mg/day	>1 year		CC(C)CO [Isobutyl alcohol]			weak and inconsistent responses	strong electrophysiological responses		
